Results taken from patent US20260234185A1, “ANTI-AGING COMPOSITION COMPRISING PEPTIDE COMPLEX AS ACTIVE INGREDIENT” (priority 2023, published 2026).
Where no end group is shown, it is not given here.

Legend:
[1] = system: AMP-activated protein kinase (AMPK); assay: Western blot of AMPK phosphorylation in palmitate-treated adipocytes (insulin metabolic disorder); type: cell-based; details: 3T3-L1 adipocytes, 25 μM palmitate 30 minutes; 0.2, 2, 20 μg/mL; 24 hours; Western blot (FIGS. 3a, 3b)
Experimental: (§1) An experiment was performed to determine whether the peptide complex prepared in Preparation Example 1 increases the phosphorylation of AMP-activated protein kinase (AMPK) and the expression level of SIRT1 (sirtuin1) protein in adipocytes in a state of insulin metabolic disorder induced by palmitate treatment.
(§2) When 3T3-L1 preadipocytes reached 80% confluence, they were seeded at 5×10^3 cells/well in a 96-well plate and used for the experiment. Two days after reaching confluence, the medium was replaced with a differentiation-inducing medium to induce the differentiation into adipocytes, and two days after the induction, the cells were cultured for 2 days in a medium containing 10% FBS and 10 μg/mL insulin, and then the medium was replaced with 10% FBS every 2 days until their differentiation into adipocytes. Once differentiation was complete, the medium was replaced with a serum-free medium and cultured for 4 hours to induce starvation. After 30 minutes of treatment with 25 μM palmitate, the peptide complexes were treated at concentrations of 0.2 μg/mL, 2 μg/mL, and 20 μg/mL and incubated for 24 hours. After dissolving by adding dissolution buffer, the proteins obtained by centrifugation at 4° C. and 12,000 rpm for 30 minutes were quantified using a BCA kit. […]

SIRT1 (sirtuin1) protein = assay: Western blot of SIRT1 protein expression in palmitate-treated adipocytes (insulin metabolic disorder); type: cell-based; details: 3T3-L1 adipocytes, 25 μM palmitate 30 minutes; 0.2, 2, 20 μg/mL; 24 hours; Western blot (FIGS. 3a, 3b)
Experimental: as §1, §2

[2] = system: fibroblast growth factor 21 (FGF21) gene; assay: RT-PCR of FGF21 gene expression in palmitate-treated adipocytes; type: cell-based; details: 3T3-L1 adipocytes, 25 μM palmitate 30 minutes; 0.2, 2, 20 μg/mL; 24 hours; RT-PCR vs palmitate control (PA) (FIGS. 4a, 4b)
Experimental: An experiment was performed to determine whether the peptide complex prepared in Preparation Example 1 increases the gene expression of longevity-related genes, FGF21, SIRT1, AMPK, and FOXO3A, in adipocytes in a state of insulin metabolic disorder induced by palmitate treatment.
When 3T3-L1 preadipocytes reached 80% confluence, they were seeded at 5×10^3 cells/well in a 96-well plate and used for the experiment. Two days after reaching confluence, the medium was replaced with differentiation-inducing medium to induce the differentiation into adipocytes, and two days after the induction, the medium was cultured for 2 days in a medium containing 10% FBS and 10 μg/mL insulin, and then the medium was replaced with 10% FBS every 2 days until their differentiation into adipocytes. After differentiation was complete, the medium was replaced with glucose-free medium, cultured for 16 hours, and then starvation was induced by culturing for 40 minutes in 100 μL KPPH buffer containing 2% BSA. After treating with 25 μM palmitate for 30 minutes, the peptide complexes were treated at concentrations of 0.2 μg/mL, 2 μg/mL, and 20 μg/mL, cultured for 24 hours, and RNA was extracted after 24 hours and RT-PCR was performed. […] Subsequently, the mRNA expression pattern was determined by agarose gel electrophoresis.

SIRT1 = assay: Western blot of SIRT1 expression in myocytes with palmitate-induced insulin metabolic disorder; type: cell-based, mouse; details: C2C12 myocytes in insulin metabolic disorder induced by palmitate treatment; 0.2, 2, 20 μg/mL; 24 hours; Western blot (FIGS. 7a, 7b)
Experimental: An experiment was performed to determine whether the peptide complex increases AMPK phosphorylation and SIRT1 expression levels in myocytes in a state of insulin metabolic disorder induced by palmitate treatment.
C2C12 cells, mouse-derived myoblasts, were cultured in DMEM medium containing 1% P/S and 2% BCS. When the cell confluency reached 70-80%, the cells were seeded in a 6-well culture plate. When the cell confluency in the 6-well culture plate reached 100%, the medium was replaced with differentiation medium (1% P/S, 2% horse serum), and thereafter, the differentiation medium (1% P/S, 2% horse serum) was replaced once every two days. Five days after the first replacement, the peptide complex was treated at concentrations of 0.2 μg/mL, 2 μg/mL, and 20 μg/mL and cultured for 24 hours. The group untreated with the peptide complex was used as the control. After dissolving by adding dissolution buffer thereto, the proteins obtained were centrifuged at 4° C. and 12,000 rpm for 30 minutes, and quantified using a BCA kit. The proteins were subjected to sodium dodecyl sulfate-polyacrylamide gel electrophoresis (SDS-PAGE) and then electrotransferred onto a membrane. The membrane with the proteins attached was blocked by treating it with 5% skim milk, and then the primary antibody was reacted overnight at 4° C. […]

peptide complex: prepared by mixing equal amounts of the peptide of SEQ ID NO: 1 (LKTRN) and the peptide of SEQ ID NO: 2 (KGSATGWMA) (also: mixture of two peptides)
increased: phosphorylation of AMPKα [1] | expression level of SIRT1 protein (SIRT1 (sirtuin1) protein) | expression of fibroblast growth factor 21 (FGF21) gene [2] | expression level of SIRT1 protein (SIRT1)
